In patent publication US9283222B2 (priority 2006, dated 2016):
Read-outs that look alike come from different tables or passages of the source.

Target: Recombinant Human Poly(ADP-Ribose) Polymerase (PARP), PARP-1 (Homo sapiens (Human), UniProt P09874)
Details: read-out: PARP-1 (Ki)
[1] = Table 1, text calls the values EC50s

Chain of Recombinant Human Poly(ADP-Ribose) Polymerase (PARP), PARP-1 (P09874 whole entry): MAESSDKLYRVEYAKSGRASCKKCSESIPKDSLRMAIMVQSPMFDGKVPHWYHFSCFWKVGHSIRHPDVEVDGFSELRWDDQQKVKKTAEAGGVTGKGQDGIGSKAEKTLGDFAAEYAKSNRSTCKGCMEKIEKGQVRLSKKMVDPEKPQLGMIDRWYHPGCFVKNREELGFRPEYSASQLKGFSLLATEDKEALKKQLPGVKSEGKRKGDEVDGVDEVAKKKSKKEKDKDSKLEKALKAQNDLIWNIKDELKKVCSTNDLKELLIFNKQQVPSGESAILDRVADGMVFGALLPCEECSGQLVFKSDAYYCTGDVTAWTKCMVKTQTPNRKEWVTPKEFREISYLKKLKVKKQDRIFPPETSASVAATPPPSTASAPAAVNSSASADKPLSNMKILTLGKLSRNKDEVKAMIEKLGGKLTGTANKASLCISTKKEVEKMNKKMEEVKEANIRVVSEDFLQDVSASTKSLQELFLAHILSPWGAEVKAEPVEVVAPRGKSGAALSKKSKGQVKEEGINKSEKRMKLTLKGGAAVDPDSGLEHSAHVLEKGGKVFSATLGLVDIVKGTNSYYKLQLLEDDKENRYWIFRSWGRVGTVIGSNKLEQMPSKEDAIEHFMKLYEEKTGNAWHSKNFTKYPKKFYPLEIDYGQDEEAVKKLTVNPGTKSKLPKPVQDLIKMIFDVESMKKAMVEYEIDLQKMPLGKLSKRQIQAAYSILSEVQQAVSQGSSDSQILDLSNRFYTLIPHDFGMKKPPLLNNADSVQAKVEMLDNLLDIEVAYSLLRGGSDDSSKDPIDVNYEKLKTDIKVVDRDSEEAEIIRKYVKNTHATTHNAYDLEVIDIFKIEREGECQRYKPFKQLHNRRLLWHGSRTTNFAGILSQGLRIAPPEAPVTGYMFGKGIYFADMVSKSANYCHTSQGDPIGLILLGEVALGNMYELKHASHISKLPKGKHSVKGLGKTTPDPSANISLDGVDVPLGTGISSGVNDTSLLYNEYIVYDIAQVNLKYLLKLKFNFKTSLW

| Structure (SMILES) | Ki (Table 2, A2 is C1-alkyl versus no A2 (bond)) [nM] | Ki [1] [nM] |
| --- | --- | --- |
| O=C1CCN1c1cc(-c2n[nH]c(=O)c3c2CCCC3)ccc1F | 291 |  |
| O=C(c1cc[nH]n1)N1CCN(C(=O)c2cc(Cc3n[nH]c(=O)c4c3NCCC4)ccc2F)CC1 [Example 704, 8-(4-fluoro-3-{[4-(1H-pyrazol-3-ylcarbonyl)piperazin-1-yl]carbonyl}benzyl)-2,3,4,6-tetrahydropyrido[2,3-d]pyridazin-5(1H)-one] |  | 0.6 |
| O=C(c1cscn1)N1CCN(C(=O)c2cc(Cc3n[nH]c(=O)c4c3NCCC4)ccc2F)CC1 [Example 705, 8-(4-fluoro-3-{[4-(1,3-thiazol-4-ylcarbonyl)piperazin-1-yl]carbonyl}benzyl)-2,3,4,6-tetrahydropyrido[2,3-d]pyridazin-5(1H)-one] |  | 1.4 |
| O=C(c1ccc2nc[nH]c2c1)N1CCN(C(=O)c2cc(Cc3n[nH]c(=O)c4c3NCCC4)ccc2F)CC1 [Example 655] |  | 0.7 |
| Nc1cccc(Cc2n[nH]c(=O)c3c2CCCC3)c1 [Example 89, 4-(3-aminobenzyl)-5,6,7,8-tetrahydrophthalazin-1(2H)-one] |  | 111 |
| O=C1CCCN1c1cc(-c2n[nH]c(=O)c3c2CCCC3)ccc1F [Example 491, 4-(4-fluoro-3-(2-oxopyrrolidin-1-yl)phenyl)-5,6,7,8-tetrahydrophthalazin-1(2H)-one] |  | 191 |
| CC(C)N1CCN(C(=O)c2cc(Cc3n[nH]c(=O)c4c3CCCC4)ccc2F)CC1 [Example 531, 4-{4-fluoro-3-[(4-isopropylpiperazin-1-yl)carbonyl]benzyl}-5,6,7,8-tetrahydrophthalazin-1(2H)-one] |  | 2 |
| O=C(c1cncnc1)N1CCN(C(=O)c2cc(Cc3n[nH]c(=O)c4c3CCCC4)ccc2F)CC1 [Example 733, 4-(4-fluoro-3-{[4-(pyrimidin-5-ylcarbonyl)piperazin-1-yl]carbonyl}benzyl)-5,6,7,8-tetrahydrophthalazin-1(2H)-one] |  | 1.7 |
| O=C(NCCN1CCCCC1)c1cc(Cc2n[nH]c(=O)c3c2NCCC3)ccc1F [Example 486, 2-fluoro-5-((5-oxo-1,2,3,4,5,6-hexahydropyrido(2,3-d)pyridazin-8-yl)methyl)-N-(2-piperidin-1-ylethyl)benzamide] |  | 15 |
| Cc1cnc(C(=O)Nc2cccc(Cc3n[nH]c(=O)c4c3CCCC4)c2)cn1 [Example 217, 5-methyl-N-(3-((4-oxo-3,4,5,6,7,8-hexahydrophthalazin-1-yl)methyl)phenyl)pyrazine-2-carboxamide] |  | 5 |
| O=c1[nH]nc(Cc2cc[n+]([O-])c(Br)c2)c2c1CCCC2 [Example 132, 4-((2-bromo-1-oxidopyridin-4-yl)methyl)-5,6,7,8-tetrahydrophthalazin-1(2H)-one] |  | 1040 |
| O=C1C2CC2C(=O)N1c1cc(Cc2n[nH]c(=O)c3c2CCCC3)ccc1F (stereo not shown) [Example 291, 3-(2-fluoro-5-((4-oxo-3,4,5,6,7,8-hexahydrophthalazin-1-yl)methyl)phenyl)-3-azabicyclo(3.1.0)hexane-2,4-dione] |  | 0.7 |
| O=C(NCCc1ccccn1)c1cccc(Cc2n[nH]c(=O)c3c2CCCC3)c1 [Example 379, 3-((4-oxo-3,4,5,6,7,8-hexahydrophthalazin-1-yl)methyl)-N-(2-pyridin-2-ylethyl)benzamide] |  | 20 |
| Cc1cc(C(=O)Nc2cccc(Cc3n[nH]c(=O)c4c3CCCC4)c2)c(C)[nH]1 [Example 202, 2,5-dimethyl-N-(3-((4-oxo-3,4,5,6,7,8-hexahydrophthalazin-1-yl)methyl)phenyl)-1H-pyrrole-3-carboxamide] |  | 93 |
| CC(=O)Nc1cccc(-c2cccc(C(C)c3n[nH]c(=O)c4c3CCCC4)c2)c1 (stereo not shown) [Example 286, N-(3′-(1-(4-oxo-3,4,5,6,7,8-hexahydrophthalazin-1-yl)ethyl)-1,1′-biphenyl-3-yl)acetamide] |  | 58 |
| O=C(c1ccc2ccccc2n1)N1CCN(C(=O)c2cc(Cc3n[nH]c(=O)c4c3CCCC4)ccc2F)CC1 [Example 739, 4-(4-fluoro-3-{[4-(quinolin-2-ylcarbonyl)piperazin-1-yl]carbonyl}benzyl)-5,6,7,8-tetrahydrophthalazin-1(2H)-one] |  | 1.3 |
